# According to patent EP4813992A1, “POLYARYL DERIVATIVE AND USE THEREOF” (Hangzhou HealZen Therapeutics Co., Ltd., priority 2023, dated 2025):
# Tests used:
# [1] = target: T1, HPK1 kinase (Homo sapiens, UniProt Q92918); experiment: Lantha screen assay, inhibitory effect on HPK1 kinase; type: biochemical; settings: initial compound concentration 1 µM
# How it was run: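 Kinase pre-incubated with compound for 10 min at room temperature in 50 mM HEPES pH 7.5, 10 mM MgCl2, 4 mM DTT, 0.01% Tween-20, 0.01% BSA. Fluorescein-PKC substrate plus ATP then added for 90 min, stopped with antibody/EDTA for 60 min. Top concentration 1 µM; IC50 from four-parameter fit of inhibition vs log concentration.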
# [2] = test system: HPK1/GLK; experiment: Selectivity of degrading HPK1/GLK in Jurkat cells (Western blot, 24 h); type: cell-based; settings: HPK1/GLK Fold = DC50 (HPK1) / DC50 (GLK)
# Description: • 1) Cell plating: Cells are resuscitated, Jurkat cell lines in good growth condition are selected, and cells in the logarithmic growth phase are collected and counted; cell suspensions are seeded into 12 or 24-well plates (20W/well) and incubated overnight at 37°C in a 5% CO2 incubator. • 2) Preparation of compounds to be tested: The compounds to be tested are serially diluted with DMSO according to the experimental requirements and added to the corresponding cell wells, to be incubated at 37°C in a 5% CO2 incubator for 24 h. • 3) Preparation of samples: After the reaction of the compound to be tested is completed, the cells are collected in 1.5 mL EP tubes, and centrifuged at 1500 rpm for 5 min; after the supernatant is discarded, the cells are washed once with PBS, and the BCA protein is quantified and the concentration is adjusted. The adjusted samples are added to 5*loading buffer, boiled at 100°C for 10 minutes, and then the samples are loaded after the temperature is returned to room temperature. • 4) Detection of samples: Electrophoresis is performed using 10% SDS-PAGE with a sample loading volume of 10 µL/well. After the membrane transfer is completed, the samples are blocked with 5% skim milk at room temperature for 1 h. After the residual blocking solution is washed away with TBST, HPK1 and GLK antibodies are added for incubation overnight at 4°C. Washing is performed 3 more times with TBST on a shaker, 5 minutes each time. After washing is completed, the secondary antibody is added for incubation at room temperature in a shaker for 1 hour; then, washing is performed 3 more times with TBST on a shaker, 5 minutes each time; finally, the membrane is soaked in TBST and then subjected to chemiluminescence development. • 5) Data Processing: After the PVDF membrane is developed, the data are exported and plotted using Imang J, and the gray values of the protein bands are analyzed using Image J software; the DC50 curve is fitted using Graphpad Prism 9 software to obtain the results of the selectivity of the compound in degrading HPK1/GLK: HPK1/GLK Fold = DC50 (HPK1) / DC50 (GLK) . Table 3 Selectivity of the compounds of the invention in degrading HPK1/GLK
# [3] = Pharmacokinetic properties in SD rats after gavage; type: in vivo; settings: rat, po, 10 mg/kg, plasma
# Description: The test compound is administered to SD rats by gavage at a dose of 10 mg/kg. Blood samples are collected at 0 h (before administration) and at 0.083, 0.25, 1, 2, 4, 6, 8, and 24 h after oral gavage administration. The samples are placed in anticoagulant tubes containing heparin sodium, and the mixture is thoroughly vortexed and centrifuged at 6000 rpm for 3 minutes. Plasma concentrations are determined by LC-MS/MS, and relevant pharmacokinetic parameters are calculated using Phoenix WinNonlin 8.2.0 pharmacokinetic software. Table 4 Pharmacokinetic properties of the compounds of the invention
# [4] = target: T1, HPK1 kinase; experiment: Activity of degrading HPK1 in Jurkat cells (Western blot, 24 h); type: cell-based; parameters: endogenous in cells; host or cells: Jurkat; settings: HPK1 protein degradation, class symbols
# Description: The adjusted samples are added to 5*loading buffer, boiled at 100°C for 10 minutes, and then the samples are loaded after the temperature is returned to room temperature. • 4) Detection of samples: Electrophoresis is performed using 10% SDS-PAGE with a sample loading volume of 8 µL/well. After the membrane transfer is completed, the samples are blocked with 5% BSA at room temperature for 1 h. After the residual blocking solution is washed away with TBST, HPK1 and GAPDH antibodies are added for incubation overnight at 4°C. Washing is performed 3 more times with TBST on a shaker, 10 minutes each time. After washing is completed, the secondary antibody is added for incubation at room temperature for 1 hour; then, washing is performed 3 more times with TBST on a shaker, 10 minutes each time; finally, ECL exposure solution is used to develop and image the bands to detect changes in HPK1 protein.
# T1 sequence (Q92918 whole entry): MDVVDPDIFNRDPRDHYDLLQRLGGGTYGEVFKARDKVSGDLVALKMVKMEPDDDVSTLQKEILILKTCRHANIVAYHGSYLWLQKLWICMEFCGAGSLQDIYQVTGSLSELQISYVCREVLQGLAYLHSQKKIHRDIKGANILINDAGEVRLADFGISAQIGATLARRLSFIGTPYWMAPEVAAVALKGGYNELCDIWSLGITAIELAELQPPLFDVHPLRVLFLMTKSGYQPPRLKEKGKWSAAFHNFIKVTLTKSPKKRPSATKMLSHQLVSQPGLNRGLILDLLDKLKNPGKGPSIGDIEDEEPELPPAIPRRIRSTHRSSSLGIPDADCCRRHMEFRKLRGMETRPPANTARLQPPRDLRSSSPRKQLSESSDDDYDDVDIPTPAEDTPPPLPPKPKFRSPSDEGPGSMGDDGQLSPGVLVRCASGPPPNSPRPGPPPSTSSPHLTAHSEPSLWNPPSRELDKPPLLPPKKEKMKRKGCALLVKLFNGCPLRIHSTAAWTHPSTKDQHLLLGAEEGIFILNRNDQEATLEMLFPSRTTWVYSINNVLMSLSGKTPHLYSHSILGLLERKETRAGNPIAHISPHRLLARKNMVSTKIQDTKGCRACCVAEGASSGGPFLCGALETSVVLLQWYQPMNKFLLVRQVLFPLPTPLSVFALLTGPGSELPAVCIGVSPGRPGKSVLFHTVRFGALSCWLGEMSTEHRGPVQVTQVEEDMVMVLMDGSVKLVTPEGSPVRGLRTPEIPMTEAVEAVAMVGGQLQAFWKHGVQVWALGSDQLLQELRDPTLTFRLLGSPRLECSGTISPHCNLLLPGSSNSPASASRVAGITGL
smiles,measurement,setting,value
Cc1cc(N2CC(CN3CC=C(c4c(C)cc(-c5cnc6[nH]cc(-c7ccc(C(=O)N(C)C)cc7)c6n5)cc4C)CC3)C2)ccc1N1CCC(=O)NC1=O [compound 014],IC50,[1],< 10 nM
same,HPK1/GLK Fold,[2],++++ (1000≤Fold)
same,AUC,[3],11400 ng·h/mL
same,DC50,[4],< 10 nM
Cc1cc(-c2cnc3[nH]cc(-c4ccc(C(=O)N(C)C)cc4)c3n2)cc(C)c1C1=CCN(CC2CN(c3ccc(C(=O)NC4CCC(=O)NC4=O)nc3)C2)CC1 (stereo not drawn) [compound 016],IC50,[1],< 10 nM
same,HPK1/GLK Fold,[2],++++ (1000≤Fold)
same,AUC,[3],5000 ng·h/mL
same,DC50,[4],< 10 nM
Cc1cc(-c2cnc3[nH]cc(-c4ccc(C(=O)N(C)C)cc4)c3n2)cc(C)c1C1=CCN(CC#Cc2cccc3c(C4CCC(=O)NC4=O)coc23)CC1 (stereo not drawn) [compound 024],IC50,[1],< 10 nM
same,HPK1/GLK Fold,[2],++++ (1000≤Fold)
same,AUC,[3],12000 ng·h/mL
same,DC50,[4],< 10 nM
Cc1cc(-c2cnc3[nH]cc(-c4ccc(C(=O)N(C)C)cc4)c3n2)cc(C)c1C1=CCN(CC2CN(c3ccc(N4CCC(=O)NC4=O)c(F)c3)C2)CC1 [compound 049],IC50,[1],< 10 nM
same,HPK1/GLK Fold,[2],++++ (1000≤Fold)
same,AUC,[3],9570 ng·h/mL
same,DC50,[4],< 10 nM
Cc1cc(-c2cnc3[nH]cc(-c4ccc(C(=O)N(C)C)cc4)c3n2)cc(C)c1C1=CCN(CC2CN(c3ccc(NC4CCC(=O)NC4=O)cc3F)C2)CC1 (stereo not drawn) [compound 052],HPK1/GLK Fold,[2],++++ (1000≤Fold)
same,AUC,[3],6300 ng·h/mL
same,DC50,[4],< 10 nM
Cc1cc(-c2cnc3[nH]cc(-c4ccc(C(=O)N(C)C)cc4)c3n2)cc(C)c1C1=CCN(CC2CN(c3cnn(C4CCC(=O)NC4=O)c(=O)c3)C2)CC1 (stereo not drawn) [compound 085],IC50,[1],< 10 nM
same,HPK1/GLK Fold,[2],++++ (1000≤Fold)
same,AUC,[3],8530 ng·h/mL
same,DC50,[4],< 10 nM
COc1cc(-c2cnc3[nH]cc(-c4ccc(C(=O)N(C)C)cc4)c3n2)ccc1C1=CCN(CC2CN(c3ccc(N4CCC(=O)NC4=O)c(C)c3)C2)CC1 [compound 135],IC50,[1],< 10 nM
same,HPK1/GLK Fold,[2],++++ (1000≤Fold)
same,AUC,[3],5480 ng·h/mL
same,DC50,[4],< 10 nM
Cc1cc(-c2cnc3[nH]cc(-c4ccc(C(=O)N(C)C)cc4)c3c2)cc(C)c1C1=CCN(CC2CN(c3ccc(N4CCC(=O)NC4=O)c(F)c3)C2)CC1 [compound 144],IC50,[1],< 10 nM
same,HPK1/GLK Fold,[2],++++ (1000≤Fold)
same,AUC,[3],5750 ng·h/mL
same,DC50,[4],< 10 nM
Cc1cc(-c2c[nH]c3ncc(-c4cc(C)c(C5=CCN(CC6CN(c7ccc(N8CCC(=O)NC8=O)c(F)c7)C6)CC5)c(C)c4)nc23)c(C)s1 [compound 150],IC50,[1],< 10 nM
same,HPK1/GLK Fold,[2],++++ (1000≤Fold)
same,AUC,[3],13100 ng·h/mL
same,DC50,[4],< 10 nM
Cc1cc(-c2cnc3[nH]cc(-c4cnn5c4CCC5)c3n2)cc(C)c1C1=CCN(CC2CN(c3ccc(N4CCC(=O)NC4=O)c(F)c3)C2)CC1 [compound 170],IC50,[1],< 10 nM
same,HPK1/GLK Fold,[2],++++ (1000≤Fold)
same,AUC,[3],12700 ng·h/mL
same,DC50,[4],< 10 nM
